Columns and labels:
[1] = system: HCMV engineered virus RC256; test: microbe, parasite or virus in culture; assay type: cell-based, human cytomegalovirus; details: Human betaherpesvirus 5, Fibroblast, read-out: Antiviral Activity RC256, first value (EC50)
[2] = molecular target: T1, Human leukocyte elastase (HLE) (Homo sapiens, UniProt P08246); test: Human leukocyte elastase assay; assay type: biochemical
T1 construct: gift of R. Senior, Washington University
T1 sequence (P08246 30-267): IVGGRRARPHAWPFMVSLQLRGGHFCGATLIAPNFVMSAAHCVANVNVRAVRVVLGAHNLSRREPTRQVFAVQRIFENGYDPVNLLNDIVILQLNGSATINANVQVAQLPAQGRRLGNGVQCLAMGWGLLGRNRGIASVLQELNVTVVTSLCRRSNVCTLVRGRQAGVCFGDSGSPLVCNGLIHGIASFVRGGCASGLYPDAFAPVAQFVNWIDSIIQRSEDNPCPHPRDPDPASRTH
Procedure: Human leukocyte elastase (HLE) (gift of R. Senior, Washington University) was dissolved in saline at 1 mg/ml and further diluted 1/20 in assay buffer (0.2 M Tris, pH 8.0) before use. 10 μl of test compound in DMSO (or DMSO alone), 100 μl of assay buffer and 50 μl of enzyme were added to 96 well plates, mixed and pre-incubated for 30 minutes at ambient temperature. Reaction was initiated by addition of 40 μl of 2.5 mM methoxysuccinyl-Ala-Ala-Pro-Val-p-nitroanilide (Sigma; 25 mM in DMSO diluted 1/10 in assay buffer before use). The increase in absorbance at 405 nm was monitored for 10 minutes with a Biotek EL340 plate reader.

[3] = @ 1 (concentration unit not given)
[4] = @ 10 (concentration unit not given)
[5] = @ 100 (concentration unit not given)

SMILES | EC50 [1] [µM] | HLE, % @ concentration [2, 4] [% @ 10] | other results
COc1ccc(C[C@H](Nc2nc3ccc(CNC(=O)CC(C)(C)C)c(C)c3c(=O)o2)C(=O)N(C)Cc2ccccc2)cc1 [Example 9m, αS-[[6-[[(3,3-Dimethyl-1-oxobutyl)amino]methyl]-5-methyl-4-oxo-4H-3,1-benzoxazin-2-yl]amino]-4-methoxy-N-methyl-N-(phenylmethyl)benzenepropanamide] | 14 |  | HLE, % @ concentration [2, 3]: 73% @ 1
COc1ccc(C[C@H](Nc2nc3ccc(N(C)C)c(C)c3c(=O)o2)C(=O)N(C)c2ccc(Cl)cc2)cc1 [Example 16c, N-(4-Chlorophenyl)-αS-[[6-(dimethylamino)-5-methyl-4-oxo-4H-3,1-benzoxazin-2-yl]amino]-4-methoxy-N-methylbenzenepropanamide] | 18 | 18 | 
Cc1c(CNC(=O)OC(C)(C)C)ccc2nc(N[C@@H](Cc3ccccc3)C(=O)N(C)Cc3ccccc3)oc(=O)c12 [Example 7j, 1,1-Dimethylethyl[[5-methyl-2-[[2-[methyl(phenylmethyl)amino]-2-oxo-1S-(phenylmethyl)ethyl]amino]-4-oxo-4H-3,1-benzoxazin-6-yl]methyl]carbamate] | 14 | 31 | 
COC(=O)[C@H](Cc1ccccc1)Nc1nc2ccc(NC(=O)CCC(=O)O)c(C)c2c(=O)o1 [Example 11d, N-[6-[[(2-Carboxyethyl)carbonyl]amino]-5-methyl-4-oxo-4H-3,1-benzoxazin-2-yl]-L-phenylalanine, methyl ester] | > 100 |  | HLE, % @ concentration [2, 5]: 76% @ 100
Cc1c(NC(=O)OC(C)(C)C)ccc2nc(N[C@H]3CCN(c4ccc(C#N)cc4)C3=O)oc(=O)c12 [Example 6y] | 67 | 25 | 
Cc1c(CNC(=O)OC2CCCC2)ccc2nc(N[C@@H](Cc3ccccc3)C(=O)N(C)Cc3ccccc3)oc(=O)c12 [Example 18f, Cyclopentyl[[5-methyl-2-[[2-[methyl(phenylmethyl)amino]-2-oxo-1S-(phenylmethyl)ethyl]amino]-4-oxo-4H-3,1-benzoxazin-6-yl]methyl]carbamate] |  |  | HLE, % @ concentration [2, 3]: 59% @ 1
COc1ccc(C[C@H](Nc2nc3ccc(CNC(=O)OC(C)(C)C)c(C)c3c(=O)o2)C(=O)N2CCCC2)cc1 [Example 7g, 1,1-Dimethylethyl[[2-[[1S-[(4-methoxyphenyl)methyl]-2-oxo-2-(1-pyrrolidinyl)ethyl]amino]-5-methyl-4-oxo-4H-3,1-benzoxazin-6-yl]methyl]carbamate] | 20 | 39 | 
COc1ccc(C[C@H](Nc2nc3ccc(CNC(=O)OCc4ccncc4)c(C)c3c(=O)o2)C(=O)N(C)Cc2ccccc2)cc1 [Example 18d, (4-Pyridinyl)methyl[[2-[[1S-[(4-methoxyphenyl)methyl]-2-[methyl(phenylmethyl)amino]-2-oxoethyl]amino]-5-methyl-4-oxo-3,1-benzoxazin-6-yl]methyl]carbamate] | 12 |  | HLE, % @ concentration [2, 3]: 55% @ 1
Cc1c(CNC(=O)OC(C)(C)C)ccc2nc(N[C@@H](Cc3ccc(Cl)cc3)C(=O)N(C)Cc3ccccc3)oc(=O)c12 [Example 7p, 1,1-Dimethylethyl[[2-[[1S-[(4-chlorophenyl)methyl]-2-[methyl(phenylmethyl)amino]-2-oxoethyl]amino]-5-methyl-4-oxo-4H-3,1-benzoxazin-6-yl]methyl]carbamate] | 20 |  | HLE, % @ concentration [2, 3]: 42% @ 1
COc1ccc(C[C@H](Nc2nc3ccc(CNC(=O)OCC(C)C)c(C)c3c(=O)o2)C(=O)N(C)Cc2ccccc2)cc1 [Example 9h, 2-Methylpropyl[[2-[[1S-[(4-methoxyphenyl)methyl]-2-[methyl(phenylmethyl)amino]-2-oxoethyl]amino]-5-methyl-4-oxo-4H-3,1-benzoxazin-6-yl]methyl]carbamate] | 14 | 45 | 
Cc1c(NC(=O)OC(C)(C)C)ccc2nc(N[C@@H](Cc3ccc(OCCN4CCCC4)cc3)C(=O)N(C)Cc3ccccc3)oc(=O)c12 [Example 6ff, 1,1-Dimethylethyl[5-methyl-2-[[2-[methyl(phenylmethyl)amino]-2-oxo-1S-[[4-[2-(1-pyrrolidinyl)ethoxy]phenyl]methyl]ethyl]amino]-4-oxo-4H-3,1-benzoxazin-6-yl]carbamate] | 50 |  | HLE, % @ concentration [2, 5]: 75% @ 100
Cc1c(CNC(=O)OC(C)(C)C)ccc2nc(N[C@@H](Cc3ccccc3)C(=O)N(C)c3ccccc3)oc(=O)c12 [Example 7m, 1,1-Dimethylethyl([5-methyl-2-[[2-(methylphenylamino)-2-oxo-1S-(phenylmethyl)ethyl]amino]-5-methyl-4-oxo-4H-3,1-benzoxazin-6-yl]methyl]carbamate] | 5.2 | 55 | 
CCN(Cc1ccccc1)C(=O)[C@H](Cc1ccc(OC)cc1)Nc1nc2ccc(CNC(=O)OC(C)(C)C)c(C)c2c(=O)o1 [Example 7o, 1,1-Dimethylethyl[[2-[[2-[ethyl(phenylmethyl)amino]-1S-[(4-methoxyphenyl)methyl]-2-oxoethyl]amino]-5-methyl-4-oxo-4H-3,1-benzoxazin-6-yl]methyl]carbamate] | 24 |  | HLE, % @ concentration ([2]; @ 12.5 (concentration unit not given)): 42% @ 12.5
Cc1c(CNC(=O)N[C@H](C)c2ccccc2)ccc2nc(N[C@@H](Cc3ccccc3)C(=O)N(C)Cc3ccccc3)oc(=O)c12 [Example 12g] | 30 |  | HLE, % @ concentration [2, 3]: 45% @ 1
Cc1c(N(C)C)ccc2nc(N[C@@H](Cc3ccccc3)C(=O)N(C)Cc3ccccc3)oc(=O)c12 [Example 16, αS-[[6-(Dimethylamino)-5-methyl-4-oxo-4H-3,1-benzoxazin-2-yl]amino]-N-methyl-N-(phenylmethyl) benzenepropanamide] | 17 | 59 | 
COc1ccc(C[C@H](Nc2nc3ccc(NC(=O)c4ccco4)c(C)c3c(=O)o2)C(=O)N(C)Cc2ccccc2)cc1 [Example 11u, N-[2-[[1S-[(4-Methoxyphenyl)methyl]-2-[methyl(phenylmethyl)amino]-2-oxoethyl]amino]-5-methyl-4-oxo-4H-3,1-benzoxazin-6-yl]furan-2-carboxamide] | 18 | 19 | 
Cc1c(NC(=O)OC(C)(C)C)ccc2nc(N[C@@H](C)C(=O)OC(C)(C)C)oc(=O)c12 [Example 6, N-[6-[[(1,1-Dimethylethoxy]carbonyl]amino]-5-methyl-4-oxo-4H-3,1-benzoxazin-2-yl]-L-alanine, 1,1-dimethylethyl Ester] | > 100 |  | HLE, % @ concentration [2, 5]: 29% @ 100
CCN(Cc1ccccc1)C(=O)[C@H](Cc1ccccc1)Nc1nc2c(Br)cc(N)c(C)c2c(=O)o1 [Example 8g, αS-[(6-Amino-8-bromo-5-methyl-4-oxo-4H-3,1-benzoxazin-2-yl)amino]-N-ethyl-N-(phenylmethyl)benzenepropanamide] | 8.5 |  | 
COc1ccc(C[C@H](Nc2nc3ccc(NC(=O)OC(C)(C)C)c(C)c3c(=O)o2)C(=O)N(C)C)cc1 [Example 6d, N-[6-[[(1,1-Dimethylethoxy)carbonyl]amino]-5-methyl-4-oxo-4H-3,1-benzoxazin-2-yl]-O-methyl-L-tyrosine, dimethylamide] | 45 |  | 
COc1ccc(C[C@H](Nc2nc3ccc(CNC(=O)OC(C)(C)C)c(C)c3c(=O)o2)C(=O)N2CCOCC2)cc1 [Example 7h, 1,1-Dimethylethyl[[2-[[1S-[(4-methoxyphenyl)methyl]-2-(4-morpholinyl)-2-oxoethyl]amino]-5-methyl-4-oxo-4H-3,1-benzoxazin-6-yl]methyl]carbamate] | 16 |  | 
Cc1cccc2nc(N[C@H](C(=O)OC(C)(C)C)c3ccccc3)oc(=O)c12 [Example 1o, N-(5-Methyl-4-oxo-4H-3,1-benzoxazin-2-yl)-L-phenylglycine, 1,1-dimethylethyl ester] | 10 |  | 
COc1ccc(C[C@H](Nc2nc3ccc(CNC(=O)CCc4ccccc4)c(C)c3c(=O)o2)C(=O)N(C)Cc2ccccc2)cc1 [Example 9u, 4-Methoxy-N-methyl-αS-[[5-methyl-6-[[(1-oxo-3-phenylpropyl)amino]methyl]-4-oxo-4H-3,1-benzoxazin-2-yl]amino]-N-(phenylmethyl)benzenepropanamide] | 18 |  | 
Cc1c(CNC(=O)OCc2cccnc2)ccc2nc(N[C@@H](Cc3ccccc3)C(=O)N(C)Cc3ccccc3)oc(=O)c12 [Example 18e, 3-Pyridinylmethyl[[5-methyl-2-[[2-[methyl(phenylmethyl)amino]-2-oxo-1S-(phenylmethyl)ethyl]amino]-4-oxo-4H-3,1-benzoxazin-6-yl]methyl]carbamate] | 7 |  | 
COC(=O)[C@H](Cc1cc(I)c(OC)c(I)c1)Nc1nc2ccc(NC(=O)OC(C)(C)C)c(C)c2c(=O)o1 [Example 6s, N-[6-[[(1,1-Dimethylethoxy)carbonyl]amino]-5-methyl-4-oxo-4H-3,1-benzoxazin-2-yl]-3,5-diiodo-O-methyl-L-tyrosine, methyl ester] | 18 |  | 
Cc1c(CNC(=O)OCc2ccccc2)ccc2nc(N[C@@H](Cc3ccc(Cl)cc3)C(=O)N(C)Cc3ccccc3)oc(=O)c12 [Example 9t, Phenylmethyl[[2-[[1S-[(4-chlorophenyl)methyl]-2-[methyl(phenylmethyl)amino]-2-oxoethyl]amino]-5-methyl-4-oxo-4H-3,1-benzoxazin-6-yl]methyl]carbamate] | 20 |  | 
